In patent US8871900B2, “Fibroblast growth factor (FGF) analogs and uses thereof” (University of Rochester, priority 2008, dated 2014):

How the values were obtained:
[1] = Plasma endotoxin after sub-TBI (tachypleus amebocyte lysate kit); format: in vivo, mouse (Balb/c, C57BL/6); conditions: Balb/c, 10.5 Gy
Experimental: Some studies have employed bacterial culture of liver samples. Bacterial translocation occurs due to mucosal barrier changes (1) at the level of the basement membrane and (2) bowel mucous volume and composition. The most reliable and most clinically applicable method to measure bacterial translocation is the endotoxin assay. The level of plasma endotoxin 3.5 days post-IR was measured with a commercialized kit that utilized tachypleus amebocyte lysate to sensitively quantitate endotoxin at extremely low levels (<0.01 EU/ml); and 4) body weight (BW): poor nutrition and water absorption will result in reduced body weight. The rate and severity of weight loss, as well as the pace of body weight recovery, will be measured.
(§1) 2) A standard scoring scale was used to evaluate stool formation (diarrhea). The bowel was extracted from the abdomen and visually inspected. Formed stool was easily distinguished from semi-solid and liquid stool as it passed from the ascending to descending colon. FIGS. 7B and 7C show the irradiated bowel in controls compared with FGF-P-treated Balb/c mice. The FGF-P was given at a dose of 2 mg/kg im for three daily doses beginning 15 min after irradiation. Animals were sacrificed 3.5 days after 10.5 Gy sub-TBI.

[2] = Stool hemoccult score after sub-TBI; format: in vivo, mouse (Balb/c, C57BL/6); conditions: Balb/c, 12.5 Gy sub-TBI; FGF-P 2 mg/kg im 15 min post irradiation; Amifostine iv 30 min pre-irradiation; P<0.05
Excerpt: There are commonly employed assays known to be relevant to both mouse and man for determining relative endpoints. These include: 1) stool blood: mucosal barrier breakdown is associated with bleeding of the small bowel; therefore, a hemoccult analysis with a commercial kit (BD Cat #64151) was used in the preliminary data at 3 days after sub-TBI. The time course and frequency of GI bleeding; 2) stool formation: the GI functions of digestion, absorption of nutrition and water, and the regular movement of intestinal muscle are required for formation of normal stool can be measured. All these functions can be upset by radiation. For example, loss of villi leads to decreased fluid absorption and diarrhea. The colon was excised and examined visually for the presence of formed stool at 3.5 days post-IR; 3) endotoximia: bacterial translocation can occur at early times following gastrointestinal radiation exposure.
as §1, with “Animals were sacrificed 3.5 days after 10.5 Gy sub-TBI.” left out

[3] = test system: proliferating crypts of small intestine; test: Crypt assay of small intestine after sub-TBI (H&E, BrdU, villi length); format: in vivo, mouse (Balb/c, C57BL/6); conditions: Balb/c
Excerpt: Enhanced proliferation of crypts in small intestine: The epithelium of the small intestine has a rapid turnover, renewing every 3-7 days. The stem cells are located ⅓ of the way up the […] and active mitosis can be seen above growing into the villus and below, forming the crypt. There are no definitive markers available to identify the stem cells, and thus the number of these cells in each crypt are unknown. When the bowel is irradiated, the number of crypts remains constant up to a dose just below the LD50/7. Above that dose, there is a log-linear decrease in the number of crypts, usually measured at 3.5 days. […] Data from the crypt assay can be augmented with injection of BrdU. BrdU can be given to animals at one or more times after irradiation to determine the rate of proliferation and rate of elongation of villi.
FGF-P was then repeated daily for 2 days. At 80 hr post-IR, BrdU (120 mg/kg) was injected ip and 4 hours later (about 3.5 days post-IR), the mice were sacrificed and the duodenal, jejunal and ileal segments (3-4 pieces/segment) were harvested, fixed in formalin, processed in paraffin blocks, cut in transverse sections of the full segment circumference (5 μm thick) and stained with H&E or anti-BrdU following the standard immunochemistry procedure (23). The proliferating crypts were defined as containing 10 or more adjacent chromophilic non-Paneth cells and a lumen. The circumference of a transverse cross-section of the intestine was used as a unit. The number of proliferating crypts was counted in each circumference. At least 10 circumferences were scored per mouse and 4-5 mice were used to generate each data point.
The villi length of duodenum, jejunum and ileum was measured using a customized Imaging Pro program.

[4] = test system: MCP-1, IL-6, TNFα; test: Plasma inflammatory molecules after sub-TBI (Luminex bead array); format: in vivo, mouse (Balb/c); conditions: Balb/c, 12 Gy sub-TBI
Experimental: Bead array technology has been developed to facilitate the study of cytokine expression profiles in normal tissues following radiation. Bead arrays have several advantages over ELISA. First, mice have a limited blood volume (0.3-0.4 ml of plasma/mouse). Each ELISA typically requires approximately 0.1 ml and thus only a limited number of assays are possible. Secondly, the time required to perform ELISAs one by one stresses the system in a large experiment and would be difficult to perform in the field in case of a radiological event. The Luminex bead array technology was used. The paired monoclonal antibodies, the highly-purified protein standards, and the more than 50 different cytokinespecific beads were purchased. In these studies, Balb/c mice received 12 Gy sub-TBI and then im injection of vehicle alone (0.2 ml of saline), FGF-P (2 mg/kg at 10 min post-IR and daily for two days), or Amifostine (200 mg/kg, either 30 min before IR, or 10 min after IR). The samples were collected 3.5 days after IR.
All three of these cytokines are associated with increased severity and progression of radiation-related inflammatory toxicity in mouse and man.

[5] = test system: proliferating crypts of small intestine; conditions: comparison stated for native FGFs; cited from earlier work
[6] = test system: irradiated mice (AGS); conditions: cited from earlier work; for dose of peak response: AGS, LD50/7 or crypt assay
[7] = test system: Cdc42, Rac1, Mapk10, Cfl; test: Gene expression in irradiated BM cells (Luminex multiplex array); format: cell-based, mouse; conditions: treatment 20 min after 5 Gy IR, 6 hours, P<0.05
[8] = test system: FGF receptor; conditions: cited from earlier work
[9] = in animals; cited from earlier work
[10] = test system: bovine aortic endothelial cells; conditions: in vitro; cited from earlier work

| Molecule | crypt survival [5] | dose of peak response [6] | binding to FGF receptor [8] | downstream signaling [8] | radio-protective effects [9] | cell proliferation and radiation-induced apoptosis [10] | other results |
| --- | --- | --- | --- | --- | --- | --- | --- |
| NCCCNCCSP(=O)(O)O [Amifostine] | – | – | – | – | – | – | plasma endotoxin level ([1]; Amifostine given after irradiation): 2.87 EU/ml; plasma endotoxin level (mean) ([1]; Amifostine iv 30 min before IR): 0.93 EU/ml; stool hemoccult score [2]: reduced stool hemoccult score; crypt numbers in the ileum ([3]; 12 Gy, Amifostine given after irradiation): no effect when given after irradiation; crypt numbers in the ileum ([3]; 3.5 days after 12 Gy, Amifostine 200 mg/kg iv 30 min before sub-TBI): level of protection matched that obtained for Amifostine; plasma MCP-1, IL-6 and TNFα ([4]; Amifostine 200 mg/kg 10 min after IR): no benefit; plasma MCP-1, IL-6 and TNFα ([4]; Amifostine 200 mg/kg 30 min before IR): beneficial response |
| FGF-1: acidic fibroblast growth factor, human protein | approximately doubles crypt survival | approximately 6 μg/mouse | – | – | – | – | – |
| FGF-2: basic fibroblast growth factor, native full length human protein | approximately doubles crypt survival | approximately 6 μg/mouse | – | – | – | – | dose with benefit ([6]; human FGF-2 in mice): 1 μg/mouse; expression of Cdc42 [7]: reversed the IR-suppressed expression; expression of Cfl (cofilin 1) [7]: suppressed towards normal; expression of Mapk10 [7]: suppressed towards normal; expression of Rac1 [7]: reversed the IR-suppressed expression |
| RFHSWDCIKTWASDTFVLVCYDDGSEA [F2A3, synthetic peptide that mimics FGF-2] | – | – | equivalent to native bFGF | as effectively as bFGF | radio-protective effects similar to bFGF | trigger cell proliferation and block radiation-induced apoptosis similar to bFGF | – |
| YRSRKYSSWYVALKR [F2A4, synthetic peptide that mimics FGF-2] | – | – | equivalent to native bFGF | as effectively as bFGF | radio-protective effects similar to bFGF | trigger cell proliferation and block radiation-induced apoptosis similar to bFGF | – |
